The conditions of data set [1]: background statement; cited from earlier work.
In another data set the test system is lung liquid clearance. The settings on record: cited from earlier work.
The test system of data set [2] is alveolar fluid resorption. The settings on record: isolated, perfused rat lungs; cited from earlier work.
Data set [3] deals with adenylate cyclase. As to the kind of experiment: Activation of adenylate cyclase in rat brain striatum. The settings on record: compared with dopamine. It counts as biochemical.
A further data set deals with D1 receptor (Homo sapiens, UniProt P21728). As to the kind of experiment: Alveolar fluid resorption in transgenic mice overexpressing the D1 receptor. The settings on record: mice with D1 receptor overexpressed by electroporation.
Data set [4] concerns adenylate cyclase. As to the kind of experiment: Stimulation of adenylate cyclase by dihydrexidine. The settings on record: for efficacy in stimulating adenylate cyclase: compared with dopamine, rat, monkey, and human brain tissue, hydrochloride.
The test system of data set [5] is D2 receptors. In kind it is binding, rat.
Data set [6] deals with D1 receptors. As to the kind of experiment: Binding affinity at rat brain striatal D1 receptors (3H-SCH 23390). The settings on record: for D1:D2 Selectivity: rat brain striatal homogenates.
In data set [7] the target is 40 binding sites (other than the D1 site). As to the kind of experiment: Screen at about 40 receptor binding sites. The settings on record: inactive at all except D2 and alpha2.
Data set [8] has as its system dopamine release and reuptake. As to the kind of experiment: Dopamine release and reuptake.
The target of data set [9] is 40 binding sites (other than the D1 site). The settings on record: inactive; Mottola et al. (1992); read-out: IC50 at about 40 different receptor binding sites; cited from earlier work.
The subject of data set [10] is rabbit model of lung injury. As to the kind of experiment: Fluid resorption in rabbit model of lung injury. In kind it is in vivo. The settings on record: intravenous route.
In the next data set the target is dopamine D1 receptor. The settings on record: read-out: IC50, binding to dopamine D1 receptor; Mottola et al. (1992); cited from earlier work.
In data set [11] the target is alpha2 adrenergic receptors. The settings on record: Mottola et al. (1992); cited from earlier work.
Data set [12] addresses alpha2 adrenergic receptors. As to the kind of experiment: Binding at alpha2 adrenergic receptors (screen). The settings on record: Method Example 2 text.
The nature of data set [13]: Half-life, duration of action and oral absorption. It counts as in vivo. The settings on record: for half-life: intravenous, read-out: half-life when given intravenously.
Another data set concerns injured rat lung. As to the kind of experiment: Fluid resorption in rat model of lung injury. It counts as in vivo. The settings on record: intravenous administration, listed as DHX, hydrochloride.
Data set [14] deals with T1, D2 receptors (Rattus norvegicus, UniProt P61169).
T1 construct: other: rat brain striatal homogenates, 3H-spiperone
In kind it is binding. The settings on record: rat brain striatal homogenates, 3H-spiperone; read-out: D2 Affinity (K0.5) ± SEM.

Data set [15] addresses D1 receptors (Rattus norvegicus, UniProt P18901). As to the kind of experiment: Binding affinity at rat brain striatal D1 receptors (3H-SCH 23390). The settings on record: read-out: D1 Affinity (K0.5) ± SEM; rat brain striatal homogenates, 3H-SCH 23390.

As a reminder, the melting point is the temperature of the solid-liquid transition. As usually defined, the half-life is the time needed for the level to fall by half in the phase considered. A word on the IC50: it is the point on the concentration scale where inhibition reaches its midpoint.

Entries after “also recorded” stand apart in the source; their conditions may differ. Structures can show the parent of a compound that is named as a salt. Where two headings read alike, the source gives them in different places. Some results are limits rather than exact numbers.

T1 sequence (P61169 whole entry): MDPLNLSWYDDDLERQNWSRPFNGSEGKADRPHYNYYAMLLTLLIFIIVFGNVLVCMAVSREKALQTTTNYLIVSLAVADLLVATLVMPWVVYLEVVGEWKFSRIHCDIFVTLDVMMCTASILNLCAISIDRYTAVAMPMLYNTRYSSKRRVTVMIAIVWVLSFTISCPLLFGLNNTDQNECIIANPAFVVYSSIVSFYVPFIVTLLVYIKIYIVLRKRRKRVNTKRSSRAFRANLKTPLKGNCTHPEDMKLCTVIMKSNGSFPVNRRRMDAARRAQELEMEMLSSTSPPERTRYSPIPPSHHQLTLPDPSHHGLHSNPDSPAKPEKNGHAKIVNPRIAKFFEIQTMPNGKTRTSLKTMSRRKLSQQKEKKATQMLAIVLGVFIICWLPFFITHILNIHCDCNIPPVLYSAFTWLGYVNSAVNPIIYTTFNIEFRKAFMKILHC
Sequence of D1 receptor (P21728 whole entry): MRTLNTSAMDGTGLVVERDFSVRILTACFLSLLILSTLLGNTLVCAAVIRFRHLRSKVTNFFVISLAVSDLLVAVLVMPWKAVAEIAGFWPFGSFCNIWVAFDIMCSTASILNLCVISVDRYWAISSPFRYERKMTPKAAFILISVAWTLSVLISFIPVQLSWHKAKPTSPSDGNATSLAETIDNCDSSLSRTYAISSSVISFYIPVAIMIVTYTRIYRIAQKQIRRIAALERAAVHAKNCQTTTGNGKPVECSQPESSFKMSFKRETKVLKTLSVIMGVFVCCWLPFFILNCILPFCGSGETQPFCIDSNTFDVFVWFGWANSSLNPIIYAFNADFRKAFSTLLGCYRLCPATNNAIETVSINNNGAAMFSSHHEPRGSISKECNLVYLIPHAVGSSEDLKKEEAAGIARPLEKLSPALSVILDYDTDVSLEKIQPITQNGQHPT
Sequence of D1 receptors (Rattus norvegicus, UniProt P18901) (P18901 whole entry): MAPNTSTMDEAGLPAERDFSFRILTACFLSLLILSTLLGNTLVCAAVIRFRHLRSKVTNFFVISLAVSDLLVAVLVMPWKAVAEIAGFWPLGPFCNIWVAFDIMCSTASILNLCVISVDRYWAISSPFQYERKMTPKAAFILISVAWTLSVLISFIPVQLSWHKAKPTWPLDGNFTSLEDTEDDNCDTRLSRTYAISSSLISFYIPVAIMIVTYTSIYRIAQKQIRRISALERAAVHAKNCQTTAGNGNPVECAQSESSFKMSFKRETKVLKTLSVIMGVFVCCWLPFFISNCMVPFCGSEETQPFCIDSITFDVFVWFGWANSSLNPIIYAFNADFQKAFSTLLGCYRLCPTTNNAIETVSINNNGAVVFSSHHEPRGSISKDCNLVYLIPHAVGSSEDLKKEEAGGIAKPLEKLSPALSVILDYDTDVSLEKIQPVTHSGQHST

For the compound `Br.Oc1ccc2c(c1O)Oc1cccc3c1C2CNC3` (centres unmarked), the melting point was 298 to 302 °C (dec.).

As to `Oc1ccc(C2CNCCc3c2cc(O)c(O)c3Cl)cc1` (centres unmarked) [fenoldopam], in [1], the half-life entry is “about 15 minutes”.

As to `NCCc1ccc(O)c(O)c1` [dopamine], the “increase in lung liquid clearance” value in the data set with lung liquid clearance (dopamine instilled at 10-5) is listed as 131%; with lung liquid clearance (dopamine instilled at 10-6), 47%; in the data set with lung liquid clearance (dopamine instilled at 10-8) it was 27%. Further, the “increase in alveolar fluid resorption” value in [2] was 98%.

For the compound `Cc1ccc2c(c1)[C@H]1c3cc(O)c(O)cc3CC[C@@H]1NC2` (relative stereo) (as salt: hydrochloride) [Compound 6b, Trans-2-methyl-10,11-dihydroxy-5,6,6a,7,8,12b-hexahydrobenzo [α]phenanthridine hydrochloride], the melting point was 190 °C (dec.).

On to `CCCN1Cc2cccc3c2C(C1)c1ccc(O)c(O)c1O3` (centres unmarked) [Compound 16c, N-propyl-8,9-dihydroxy-1,2,3,11b-tetrahydrochromeno[4,3,2-de]isoquinoline], for which the melting point is 259 to 264 °C (dec.).

`Oc1ccc2c(c1O)Cc1cccc3c1C2CNC3` (centres unmarked) [dinapsoline, 8,9-Dihydroxy-2,3,7,11b-tetrahydro-1H-napth[1,2,3-de]isoquinoline]: in the data set with adenylate cyclase [3], the “efficacy in activating adenylate cyclase in rat brain striatum” value was “as effective as dopamine”.

As to `CN1CCc2cc(Cl)c(O)cc2C(c2ccccc2)C1` (centres unmarked) [SCH 23390], the “blockade of the increase in alveolar fluid resorption” value at D1 receptor is reported as “blocked”. In the data set on adenylate cyclase [4] (D1 antagonist), the “blockade of dihydrexidine stimulation of adenylate cyclase” value was “blocked”. In addition, in [2], the “blockade of the dopamine effect on alveolar fluid resorption” value is “blocked”.

In the case of `Cc1ccc2c(c1)CN[C@H]1CCc3cc(O)c(O)cc3[C@H]21` (relative stereo) (as salt: hydrochloride) [Compound 6c, Trans-3-methyl-10,11-dihydroxy-5,6,6a,7,8, 12b-hexahydrobenzo[α]phenanthridine hydrochloride], the melting point is 190 °C (dec.).

`Cc1ccc2c(c1)CN[C@H]1CCc3cc(O)c(O)cc3[C@H]21` (relative stereo) [Compound 6c, Trans-3-methyl-10,11-dihydroxy-5,6,6a,7,8, 12b-hexahydrobenzo[α]phenanthridine hydrochloride]: in the data set on D2 receptors [5], the “D2 potency relative to dihydrexidine” value is listed as “greater D2 potency”. In the data set on D1 receptors [6], the “D1 potency and efficacy relative to dihydrexidine” value is on record as “comparable to dihydrexidine”; the “D1:D2 Selectivity” value is given as 6.

`Oc1cc2c(cc1O)[C@H]1c3ccccc3CN[C@@H]1CC2` (racemic) [dihydrexidine, Trans-10,11-dihydroxy-5,6,6a,7,8,12b-hexahydrobenzo[α]phenanthridine hydrochloride]: the IC50 was greater than 10 µM in data set [7]; greater than 10 µM in data set [9]; roughly 0.01 µM on dopamine D1 receptor; 0.23 µM in data set [11]; roughly 0.23 µM in data set [12]. In [8], the “releasing dopamine or blocking its reuptake” value was “inactive”. In addition, in data set [10], the “fluid resorption in lung injury model” value is given as “shown to induce fluid resorption”. Moreover, the “efficacy in stimulating adenylate cyclase” value is listed as “full efficacy” in the data set on adenylate cyclase [4] and “as efficacious as dopamine” in the data set with adenylate cyclase [4] (listed as DHX). In addition, the half-life is roughly 30 min in data set [13] (in vivo) and less than 10 min in [13] (serum). Further, in data set [13] (oral administration, listed as DHX, hydrochloride), the “oral absorption / oral bioavailability” value is given as “relatively poor; also recorded: poorly absorbed”. In addition, the “functional half-life when given subcutaneously” value in data set [13] (subcutaneous) is given as “about 3 hr”. Further, the “fluid absorption / resorption from injured lung” value with injured rat lung is “shown efficacy; also recorded: shown to induce fluid resorption”.

Consider `CCN1CCCC1CNC(=O)c1cc(S(N)(=O)=O)ccc1OC` (centres unmarked) [sulpiride], for which, in data set [2], the “blockade of the dopamine effect on alveolar fluid resorption” value was “not”.

Take `Oc1ccc2c(c1O)Cc1cccc3c1C2CNC3` (centres unmarked) (as salt: hydrobromid) [dinapsoline, 8,9-Dihydroxy-2,3,7,11b-tetrahydro-1H-napth[1,2,3-de]isoquinoline]: the melting point was 258 °C (dec.).

For `Cl.Oc1cc2c(cc1O)[C@@H]1c3cc(Cc4ccccc4)ccc3CN[C@H]1CC2` (relative stereo) [Compound 6e, Trans-2-benzyl-10,11-dihydroxy-5,6,6a,7,8,12b-hexahydrobenzo[α]phenanthridine hydrochloride], the values for the Ki at D2 receptors [14] and on D1 receptors [15] were 0.185 µM and 0.29 µM, respectively. Moreover, the “D1:D2 Selectivity” value in the data set with D1 receptors [6] was 0.6.
